From patent US20250206757A1 (GASHERBRUM BIO, INC., priority 2022, published 2025)

Biological target: GLP-1 Receptor (Homo sapiens, UniProt P43220)
Test: GLP-1R agonist cAMP stimulation assay (HEK293/GLP1R/CRE-LUC cells, HTRF cAMP dynamic 2 kit)
Format: cell-based
Conditions: HEK293/CRE-Luc cell line stably expressing the GLP-1 Receptor; 30 min incubation at 37° C.
Experimental: Activation of GLP-1 receptor is known to stimulate cyclic AMP (cAMP) production in cells which indicates primary coupling to the Gas subunit of the G protein heterotrimeric complex.
To optimize functional activity directed toward Gas coupling, a HEK293/CRE-Luc cell line developed by HDB stably expressing the GLP-1 Receptor was used. 200× concentration of compound working solutions were prepared (Agilent Technologies Bravo) with 1/2 log serial dilution in 384-well Echo LDV plate (Labcyte, Cat #LP-0200). 50 nL/well 200× concentration of compound working solutions were moved to 384-well white low volume plate (Greiner, Cat #784075) using Labcyte ECHO550. 1×10^5 cells/mL HEK293/GLP1R/CRE-LUC (HD Biosciences) cell suspensions prepared with assay buffer [DPBS containing 0.5 mM IBMX (Sigma, Cat #15879) and 0.10% BSA (GENVIEW, Cat #FA016-100g)], 10 μL cell suspensions were added to each well of previous generated assay plate which already contains 50 nL compound at 200× concentration using ThermoFisher Multidrop Combi (1000 cells/well). Seal the plate and incubate at 37° C. with 5% CO2 for 30 min.
After incubation the cAMP assay signal was generated using cAMP dynamic 2 Kit (Cisbio). 5 μL cAMP-d2 working solution was added to each well, followed with 5 μL Anti-cAMP antibody-cryptate working solution added to each well using ThermoFisher Multidrop Combi. Incubate at room temperature for 1 hour protected from light. Read the fluorescence at 665 and 615 nm with Reader PerkinElmer EnVision.

Sequence of GLP-1 Receptor (P43220 24-463): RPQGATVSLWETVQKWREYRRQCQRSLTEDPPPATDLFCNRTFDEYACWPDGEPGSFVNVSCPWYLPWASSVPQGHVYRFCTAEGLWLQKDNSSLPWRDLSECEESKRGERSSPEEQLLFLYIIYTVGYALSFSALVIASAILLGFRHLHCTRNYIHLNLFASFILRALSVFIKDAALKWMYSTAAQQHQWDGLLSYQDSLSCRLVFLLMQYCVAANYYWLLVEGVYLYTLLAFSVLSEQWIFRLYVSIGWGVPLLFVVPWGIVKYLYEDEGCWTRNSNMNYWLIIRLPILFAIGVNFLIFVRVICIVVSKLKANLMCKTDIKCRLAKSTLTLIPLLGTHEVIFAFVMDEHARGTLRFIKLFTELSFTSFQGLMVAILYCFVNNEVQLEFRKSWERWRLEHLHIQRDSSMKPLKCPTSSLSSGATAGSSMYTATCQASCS

SMILES | EC50 [nM]
FC(F)(F)c1cc2c(nc1OCc1ccc(Cl)cc1)CN(Cc1nc3cc(-c4nnc[nH]4)ncc3n1C[C@@H]1CCO1)CC2 [Compound 64, 2-[(4-chlorophenyl)methoxy]-7-[(3-{[(2S)-oxetan-2-yl]methyl}-6-(4H-1,2,4-triazol-3-yl)-3H-imidazo[4,5-c]pyridin-2-yl)methyl]-3-(trifluoromethyl)-5,6,7,8-tetrahydro-1,7-naphthyridine] | 1 to 300
NC(=O)c1ccc2c(c1)nc(CN1CCc3cc(C(F)(F)F)c(OCc4ccc(Cl)cc4F)nc3C1)n2C[C@@H]1CCO1 [Compound 92, 2-({2-[(4-chloro-2-fluorophenyl)methoxy]-3-(trifluoromethyl)-5,6,7,8-tetrahydro-1,7-naphthyridin-7-yl}methyl)-1-{[(2S)-oxetan-2-yl]methyl}-1H-1,3-benzodiazole-5-carboxamide] | 1 to 300
Cc1ccc(COc2nc3c(cc2C(F)(F)F)CCN(Cc2nc4c(F)c(-c5noc(=O)[nH]5)ccc4n2C[C@@H]2CCO2)C3)c(Cl)c1 [Compound 45] | < 1
O=c1cc(-c2cc3nc(CN4CCc5cc(C(F)(F)F)c(OCc6ccc(Cl)cc6F)nc5C4)n(C[C@@H]4CCO4)c3cn2)cc[nH]1 [Compound 100, 4-[2-({2-[(4-chloro-2-fluorophenyl)methoxy]-3-(trifluoromethyl)-5,6,7,8-tetrahydro-1,7-naphthyridin-7-yl}methyl)-3-{1[(2S)-oxetan-2-yl]methyl}-3H-imidazo[4,5-c]pyridin-6-yl]-1,2-dihydropyridin-2-one] | > 300
CSc1nnc(-c2ccc3c(c2)nc(CN2CCc4cc(C(F)(F)F)c(OCc5ccc(Cl)cc5F)nc4C2)n3C[C@@H]2CCO2)[nH]1 [Compound 86, 2-[(4-chloro-2-fluorophenyl)methoxy]-7-({5-[5-(methylsulfanyl)-4H-1,2,4-triazol-3-yl]-1-{[(2S)-oxetan-2-yl]methyl}-1H-1,3-benzodiazol-2-yl}methyl)-3-(trifluoromethyl)-5,6,7,8-tetrahydro-1,7-naphthyridine] | < 1
Fc1cc(Cl)ccc1COc1nc2c(cc1C(F)(F)F)CCN(Cc1nc3cc(-c4nnc(C(F)(F)F)[nH]4)ncc3n1C[C@@H]1CCCO1)C2 [Compound 79, 2-[(4-chloro-2-fluorophenyl)methoxy]-7-[(3-{1[(2S)-oxolan-2-yl]methyl}-6-[5-(trifluoromethyl)-4H-1,2,4-triazol-3-yl]-3H-imidazo[4,5-c]pyridin-2-yl)methyl]-3-(trifluoromethyl)-5,6,7,8-tetrahydro-1,7-naphthyridine] | 1 to 300
Fc1cc(Cl)ccc1COc1nc2c(cc1C(F)(F)F)CCN(Cc1nc3cc(-c4nnn[nH]4)ncc3n1C[C@@H]1CCO1)C2 [Compound 14, 2-[(4-chloro-2-fluorophenyl)methoxy]-7-[(3-{[(2S)-oxetan-2-yl]methyl}-6-(1H-1,2,3,4-tetrazol-5-yl)-3H-imidazo[4,5-c]pyridin-2-yl)methyl]-3-(trifluoromethyl)-5,6,7,8-tetrahydro-1,7-naphthyridine] | < 1
Cc1ccc(COc2nc3c(cc2C(F)(F)F)CCN(Cc2nc4cc(-c5noc(=O)[nH]5)ncc4n2C[C@@H]2CCO2)C3)c(Cl)c1 [Compound 33, 3-[2-({2-[(2-chloro-4-methylphenyl)methoxy]-3-(trifluoromethyl)-5,6,7,8-tetrahydro-1,7-naphthyridin-7-yl}methyl)-3-{1[(2S)-oxetan-2-yl]methyl}-3H-imidazo[4,5-c]pyridin-6-yl]-4,5-dihydro-1,2,4-oxadiazol-5-one] | < 1
CS(=O)(=O)NC(=O)c1ccc2c(c1)nc(CN1CCc3cc(C(F)(F)F)c(OCc4ccc(Cl)cc4F)nc3C1)n2C[C@@H]1CCO1 [Compound 93, 2-({2-[(4-chloro-2-fluorophenyl)methoxy]-3-(trifluoromethyl)-5,6,7,8-tetrahydro-1,7-naphthyridin-7-yl}methyl)-N-methanesulfonyl-1-{[(2S)-oxetan-2-yl]methyl}-1H-1,3-benzodiazole-5-carboxamide] | < 1
CNC(=O)c1cc2nc(CN3CCc4cc(C(F)(F)F)c(OCc5ccc(Cl)cc5F)nc4C3)n(C[C@@H]3CCO3)c2cn1 [Compound 24, 2-({2-[(4-chloro-2-fluorophenyl)methoxy]-3-(trifluoromethyl)-5,6,7,8-tetrahydro-1,7-naphthyridin-7-yl}methyl)-N-methyl-3-{[(2S)-oxetan-2-yl]methyl}-3H-imidazo[4,5-c]pyridine-6-carboxamide] | 1 to 300
O=c1[nH]c(-c2ccc3c(nc(CN4CCc5cc(C(F)(F)F)c(OCc6ccc(Cl)cc6)nc5C4)n3C[C@@H]3CCO3)c2F)no1 [Compound 46, 3-[2-({2-[(4-chlorophenyl)methoxy]-3-(trifluoromethyl)-5,6,7,8-tetrahydro-1,7-naphthyridin-7-yl}methyl)-4-fluoro-1-{[(2S)-oxetan-2-yl]methyl}-1H-1,3-benzodiazol-5-yl]-4,5-dihydro-1,2,4-oxadiazol-5-one] | < 1
O=c1[nH]c(-c2ccc3c(nc(CN4CCc5cc(C(F)(F)F)c(NCc6ccc(Cl)cc6F)nc5C4)n3C[C@@H]3CCO3)c2F)no1 [Compound 106, 3-{2-[(2-{[(4-chloro-2-fluorophenyl)methyl]amino}-3-(trifluoromethyl)-5,6,7,8-tetrahydro-1,7-naphthyridin-7-yl)methyl]-4-fluoro-1-{[(2S)-oxetan-2-yl]methyl}-1H-1,3-benzodiazol-5-yl}-4,5-dihydro-1,2,4-oxadiazol-5-one] | < 1

Other lines, results leading:

EC50 [nM] | SMILES
< 1 | N#Cc1cc2c(nc1OCc1c(F)cc(Cl)cc1F)CN(Cc1nc3cc(-c4nnc(C(F)F)[nH]4)ncc3n1C[C@@H]1CCO1)CC2 [Compound 69, 2-[(4-chloro-2,6-difluorophenyl)methoxy]-7-({6-[5-(difluoromethyl)-4H-1,2,4-triazol-3-yl]-3-{[(2S)-oxetan-2-yl]methyl}-3H-imidazo[4,5-c]pyridin-2-yl}methyl)-5,6,7,8-tetrahydro-1,7-naphthyridine-3-carbonitrile]
< 1 | Cc1cc2c(nc1OCc1c(F)cc(Cl)cc1F)CN(Cc1nc3cc(-c4nnc(C(F)(F)F)[nH]4)cnc3n1C[C@@H]1CCO1)CC2 [Compound 51, 2-[(4-chloro-2,6-difluorophenyl)methoxy]-3-methyl-7-[(3-{1[(2S)-oxetan-2-yl]methyl}-6-[5-(trifluoromethyl)-4H-1,2,4-triazol-3-yl]-3H-imidazo[4,5-b]pyridin-2-yl)methyl]-5,6,7,8-tetrahydro-1,7-naphthyridine]
< 1 | Cc1cc2c(nc1OCc1ccc(Cl)cc1F)CN(Cc1nc3cc(-c4nnc(C(F)F)[nH]4)cnc3n1C[C@@H]1CCO1)CC2 [Compound 52, 2-[(4-chloro-2-fluorophenyl)methoxy]-7-({6-[5-(difluoromethyl)-4H-1,2,4-triazol-3-yl]-3-{[(2S)-oxetan-2-yl]methyl}-3H-imidazo[4,5-b]pyridin-2-yl}methyl)-3-methyl-5,6,7,8-tetrahydro-1,7-naphthyridine]
< 1 | Cc1cc2c(nc1NCc1c(F)cc(Cl)cc1F)CN(Cc1nc3cc(-c4noc(=O)[nH]4)ncc3n1C[C@@H]1CCO1)CC2 [Compound 35, 3-{2-[(2-{[(4-chloro-2,6-difluorophenyl)methyl]amino}-3-methyl-5,6,7,8-tetrahydro-1,7-naphthyridin-7-yl)methyl]-3-{[(2S)-oxetan-2-yl]methyl}-3H-imidazo[4,5-c]pyridin-6-yl}-4,5-dihydro-1,2,4-oxadiazol-5-one]
< 1 | Fc1cc(Cl)cc(F)c1COc1nc2c(cc1C(F)(F)F)CCN(Cc1nc3cc(-c4nnc(C(F)(F)F)[nH]4)nnc3n1C[C@@H]1CCO1)C2 [Compound 39, 2-[(4-chloro-2,6-difluorophenyl)methoxy]-7-[(7-{[(2S)-oxetan-2-yl]methyl}-3-[5-(trifluoromethyl)-4H-1,2,4-triazol-3-yl]-7H-imidazo[4,5-c]pyridazin-6-yl)methyl]-3-(trifluoromethyl)-5,6,7,8-tetrahydro-1,7-naphthyridine]
< 1 | CC(F)(F)c1nnc(-c2cc3nc(CN4CCc5cc(C(F)(F)F)c(OCc6ccc(Cl)cc6F)nc5C4)n(C[C@@H]4CCO4)c3cn2)[nH]1 [Compound 66, 2-[(4-chloro-2-fluorophenyl)methoxy]-7-({6-[5-(1,1-difluoroethyl)-4H-1,2,4-triazol-3-yl]-3-{[(2S)-oxetan-2-yl]methyl}-3H-imidazo[4,5-c]pyridin-2-yl}methyl)-3-(trifluoromethyl)-5,6,7,8-tetrahydro-1,7-naphthyridine]
< 1 | Fc1cc(Cl)ccc1COc1nc2c(cc1C(F)(F)F)CCN(Cc1nc3cc(-c4nnc(C(F)(F)F)[nH]4)ncc3n1C[C@@H]1CCO1)C2 [Compound 4, 2-[(4-chloro-2-fluorophenyl)methoxy]-7-[(3-{[(2S)-oxetan-2-yl]methyl}-6-[5-(trifluoromethyl)-4H-1,2,4-triazol-3-yl]-3H-imidazo[4,5-c]pyridin-2-yl)methyl]-3-(trifluoromethyl)-5,6,7,8-tetrahydro-1,7-naphthyridine]
